Experimental data reported in ChEMBL document CHEMBL1158032, “Manaarenolides A-I, diterpenoids from the soft coral Sinularia manaarensis” (J Nat Prod, 2006).
In brackets after ≈: the same amount, converted by molar mass.

Tests used:
[1] = Cytotoxicity against human Med cells by MTT assay; type: cell-based; details: read-out: ED50 (the source's name)
[2] = Cytotoxicity against human Hepa59T/VGH cells by MTT assay; type: functional; details: HEPA 59T/VGH, read-out: ED50 (the source's name)
[3] = system: HeLa; assay: Cytotoxicity against human HeLa cells by MTT assay; type: functional; details: read-out: ED50 (the source's name)
[4] = system: KB; assay: Cytotoxicity against human KB cells by MTT assay; type: functional; details: read-out: ED50 (the source's name)

Structure (SMILES) | CC50 [1] | EC50 [2] | EC50 [3] | EC50 [4]
C=C1C(=O)O[C@@H]2C[C@H]1C/C=C(\C)[C@@H](O)CC/C(C)=C/CC[C@]2(C)O [MANAARENOLIDE G] | 13.4 µg/mL (≈ 40.1 µM) | 7.2 µg/mL (≈ 21.5 µM) | 10.9 µg/mL (≈ 32.6 µM) | 8.7 µg/mL (≈ 26 µM)
C=C1C(=O)O[C@@H]2C[C@H]1C/C=C(/C)[C@@H](O)CC/C(C)=C/CC[C@]2(C)O [MANAARENOLIDE H] | 5.8 µg/mL (≈ 17.3 µM) | 7.4 µg/mL (≈ 22.1 µM) | 9.3 µg/mL (≈ 27.8 µM) | 7.6 µg/mL (≈ 22.7 µM)
